In patent US20070069122A1, “In situ polypeptide identification” (priority 2005, published 2007):

Assays:
[1] = test system: kidney proximal tubules; test: Histology of kidney after gentamicin treatment (model system for nephrotoxicity); type: in vivo, rat; conditions: rats, 100 mg/kg/day sc for 7 days
Text: Permission for animal studies was obtained from the local regulatory agencies, and all study protocols were in compliance with animal welfare guidelines. Male HanBrl: Wistar rats of approximately 12 weeks of age (300g±20%) were obtained from BRL, Füllinsdorf, Switzerland. The animals were housed individually in Macrolone cages with wood shavings as bedding at […] and 50% relative humidity in a 12-hr light/dark rhythm with free access to water and Kliba 3433 rodent pellets (Provimi Kliba AG, Kaiseraugst, Switzerland).
(§1) Animals were treated for 7 consecutive days with 100 mg/kg/day Gentamicin (dissolved in saline) or vehicle by subcutaneous (sc) injections and sacrificed 24 hours after the last application by CO2 inhalation. Immediately preceding sacrifice, terminal blood samples for clinical chemistry investigations were collected from the retroorbital sinus under isofluoran anesthesia.
Representative kidney samples were fixed in 10% neutral buffered formalin. All samples were processed using routine procedures and embedded in Paraplast. Tissue sections approximately 2-3 microns were cut and stained with hematoxylin-eosin (HE) or periodic acid-Schiff (PAS).
Marked degeneration/regeneration of proximal tubules (grade 4) was clearly observed in rats treated with 100 mg/kg/day gentamicin for 7 days. This finding was correlated to the analysis of rat kidney thin sections by MALDI IMS. […]

[2] = test system: rat kidney cortex; test: MALDI IMS profiling of rat kidney cortex thin sections, gentamicin-treated versus control; type: in vivo
Experimental: as §1
Marked degeneration/regeneration of proximal tubules (grade 4) was clearly observed in rats treated with 100 mg/kg/day gentamicin for 7 days. This finding was correlated to the analysis of rat kidney thin sections by MALDI IMS. 9 control and 9 gentamicin-treated rat kidneys thin sections (3 animals, 3 sections from each animal; the thin section was spotted with matrix as shown in FIG. 1) were subjected to mass spectrometric analysis as described below.
Kidneys were dissected from rats, snap frozen on dry ice and stored at −80° C. prior to further processing. 12 μm sections were obtained on a cryostat (LEICA CM 3000, Leica Microsystems) at −18° C. and deposited on ITO-coated conductive glass slides (Indium Tin Oxide 50×75×0.9 mm, Delta Technologies). Sample preparation were performed according to published procedure (Schwartz, S. A., Reyzer, M. L., and Caprioli, R. M. (2003) Journal of Mass Spectrometry 38, 699-708). Tissue sections were then fixed by immersion in ethanol bathes and let to dry 30 minutes under vacuum. During all the process the sections were stored as much as possible under vacuum. Deposition of MALDI matrix was done manually with a pipette. 200 nL of freshly prepared sinapinic acid solution (3,5-dimethoxy-4-hydroxycinnaminic acid, Fluka, 20 mg/ml in water/acetonitrile 1:1, 0.1% trifluoroacetic acid) was deposited onto the tissue. After crystallization, an additional 200 nL was layered onto the spots and the matrix was let to dry at room temperature. The sample was then kept under vacuum if not analyzed immediately by mass spectrometry.
MALDI MS spectra were acquired using an UltraFlex MALDI ToF/ToF instrument (Bruker Daltonics) with a standard 337-nm N2 laser operating at 50Hz and a laser spot size of 50 μm. The instrument was operated in positive linear mode (2 kDa-30 kDa) at constant laser power. A total of 8 times 100 laser shots were averaged for each manually deposited matrix droplets. Spectra were externally calibrated using a protein calibration standard solution (Insulin, Ubiquitin I, Cytochrom C, Myoglobin; Bruker Daltonics). Internal calibration was performed post-acquisition using redundant known peaks from the spectra (Hemoglobin α-chain, Thymosin β-4, Cytochrome c oxidase polypeptide VIIa L, Ubiquitin, Cytochrome c oxidase polypeptide VIb).
The spectra were processed using a combination of tools available commercially and developed in-house at Vanderbilt University. Baseline subtraction, normalization, peak detection, and spectral alignment were performed using the ProTS-Data software (Efeckta Technologies, Inc.) All spectra were baseline corrected to remove contributions of chemical noise to the signal. This step was performed by locally estimating the baseline and subtracting the […] from the raw data. For the present data set the software was set to consider a window width 10 times that of the peak width to account for the differences in resolution for different m/z regions. The baseline corrected spectra were normalized in intensity by scaling the spectra to a common total ion current. Peak detection was performed using ProTS-Data and a list of 13 common peaks was selected to be internal alignment points using a quadratic calibration function. The criterion used to select common peaks were that the peak must occur in greater than 80% of the spectra to be aligned, must not have interfering or overlapping peaks, and the peaks must have a standard deviation of the observed centroid value less that 7 mass units. […]

[3] = test system: transthyretin (prealbumin); test: Western blot of kidney cortex cytosolic fraction and HPLC fraction D10; type: in vivo, rat; conditions: kidney cortex cytosolic fraction
Experimental: Tissue extracts from control and treated rat kidneys were obtained by homogenization of a piece of cortex in a 10 mM Tris-HCl buffer pH 7.6 containing 250 mM sucrose and protease inhibitors (Roche Complete). The tissue extract was subjected to three successive centrifugation steps at 4° C. (10 min at 680 g; 10 min at 10 000 g; 1 h at 100 000 g) whereas the pellets were discarded and the supernatant of the last centrifugation step was kept as the kidney cytosolic fraction.
1 μl of the kidney cytosolic fraction and of the relevant HPLC fraction were subjected to electrophoresis using a 4-20% Tris-Glycine SDS-PAGE gel (Invitrogen) and the proteins were subsequently transferred to a PVDF membrane. Blots were blocked in 5% milk in PBS containing 0.1% Tween 20 for 1 h and incubated overnight at room temperature with an […] (Abcam) in PBS containing 5% milk and 0.1% Tween 20. After washing with PBS containing 0.1% Tween 20, blots were incubated for 1 h with horseradish peroxidase conjugated with an anti-sheep IgG antibody (Silenus Laboratories). Antibody binding was detected using ECL western blotting reagents (Amersham).

[4] = test system: transthyretin; test: Immunohistochemical examination of kidney; type: in vivo; conditions: treated versus control rat, whole kidney sections
Text: FIG. 8: Immunohistochemical examination of kidney from control and gentamicin-treated rat. […] High magnification photomicrographs from the cortex (C, E) vs. the medulla (D, F) reveal specific localization of TTR immunoreactivity in the cortex tubules of the treated kidney. Transthyretin immunoreactivity is visualized by the grey precipitate of diaminobenzidine-Ni counterstained with cresyl violet.

[5] = kidney cortex, 100 mg/kg/day sc 7 days

Gentamicin
degeneration/regeneration of proximal tubules, grade [1]: 4
presence of species 12959 (transthyretin S28-Q146) in mass spectrum ([2]; in situ and in HPLC fraction D10): only present in the mass spectrum of the gentamicin-treated sample
doubly-charged species at m/z 6480, behaviour in treated versus control cortex ([2]; kidney cortex): showed a similar behavior
Average S/N (gent), peak m/z 3343.714 [2, 5]: 2
Average S/N (gent), peak m/z 4010.498 [2, 5]: 1
Average S/N (gent), peak m/z 4107.083 [2, 5]: 5
Average S/N (gent), peak m/z 4141.907 [2, 5]: 1
Average S/N (gent), peak m/z 4181.504 [2, 5]: 0
Average S/N (gent), peak m/z 4497.792 [2, 5]: 0
Average S/N (gent), peak m/z 5096.886 [2, 5]: 5
Average S/N (gent), peak m/z 5222.249 [2, 5]: 0
Average S/N (gent), peak m/z 5301.852 [2, 5]: 0
Average S/N (gent), peak m/z 5355.669 [2, 5]: 1
Average S/N (gent), peak m/z 5478.957 [2, 5]: 2
Average S/N (gent), peak m/z 6080.035 [2, 5]: 1
Average S/N (gent), peak m/z 6498.996 [2, 5]: 0
Average S/N (gent), peak m/z 6912.956 [2, 5]: 6
Average S/N (gent), peak m/z 6938.997 [2, 5]: 1
Average S/N (gent), peak m/z 7083.364 [2, 5]: 6
Average S/N (gent), peak m/z 12959.23 [2, 5]: 5
Average S/N (gent), peak m/z 13004.71 [2, 5]: 0
Average S/N (gent), peak m/z 17100.68 [2, 5]: 0
Average S/N (gent), peak m/z 17176.83 [2, 5]: 0
transthyretin abundance in kidney by Western blot, gentamicin-treated versus control rats [3]: significantly more abundant
transthyretin immunoreactivity in kidney cortex [4]: high levels of transthyretin immunoreactivity
